Assay results reported in patent publication US5491129A, “Synthetic peptides derived from vitronectin and pharmaceutical compositions comprising them” (Yeda Research and Development Co. Ltd., priority 1992, dated 1996).
Where a SMILES comes first, the peptide text is derived from it. Where no end group is shown, it is not given here.

Columns and labels:
[1] = biological target: T1, PAI-1 (Homo sapiens, UniProt P05121); assay: Competition ELISA: binding of vitronectin onto immobilized activated PAI-1; parameters: purchased American Diagnostica, New York; conditions: for level of inhibition achieved: FIG. 7, vitronectin 0.5 μg/ml, increasing peptide concentrations
T1 sequence (P05121 24-402): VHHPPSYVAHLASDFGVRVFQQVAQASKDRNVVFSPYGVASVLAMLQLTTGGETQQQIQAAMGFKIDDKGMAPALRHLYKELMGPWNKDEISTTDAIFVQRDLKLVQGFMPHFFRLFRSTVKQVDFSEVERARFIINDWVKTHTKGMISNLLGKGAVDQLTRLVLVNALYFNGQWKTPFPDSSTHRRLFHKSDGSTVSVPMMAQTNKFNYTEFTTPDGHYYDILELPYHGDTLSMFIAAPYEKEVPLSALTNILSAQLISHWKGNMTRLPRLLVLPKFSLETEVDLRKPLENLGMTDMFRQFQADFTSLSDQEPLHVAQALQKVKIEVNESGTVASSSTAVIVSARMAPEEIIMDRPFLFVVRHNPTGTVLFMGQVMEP
Protocol: Protein concentration was determined by the method described by Bradford, 1976. The binding of vitronectin to immobilized PAI-1 was conducted as described by Salonen et al., 1989. The activation of PAI-1 by sodium dodecylsulfate was carried out as described by Katagiri et al., 1988. Amino acid sequencing was performed with an Applied Biosystem 475A sequencer.
Each of the synthetic peptides shown in Scheme I and each of the peptides containing amino acids with a D configuration (BP7, BP8 and BP14) was tested by a competition ELISA assay for its ability to inhibit the binding of vitronectin to immobilized activated PAI-1. The first screening (FIGS. 3A-3D) was carried out with an identical molar concentration (25 μM) of the peptides. In view of a possible variability in such tests (mainly due to some variability in the activated PAI-1 coating of the plates), a control of vitronectin alone was run alongside in each plate for reference.
The various synthetic peptides (all 50 μM) were dissolved in 50 μl of a buffer composed of PBS, Tween 20 (0.01%), polyethylene-glycol (average M.W. 8 kDa) (4% w/v). Each of the samples was added to a microtiter well coated with SDS-activated PAI, prepared as described by Katagiri et al., 1988. After an incubation of 30 min at 22° C., aliquots (50 μl) of a vitronectin solution (at various concentrations) in the same buffer were added to each well. This was followed by an incubation for 2 hrs at 37° C. The amount of bound vitronectin was determined with specific rabbit anti-human Vn antibodies (1:1000 dilution), followed by a β-galactosidase-linked protein A and using o-nitrophenyl-β-D-galactopyranoside (ONPG) as a substrate. The enzymatic reaction was allowed to proceed and the absorbance at 405+490 nm was measured. Each point in the graphs represents the mean of triplicate determinations. […]

[2] = biological target: T1, PAI-1; assay: Release of PAI-1 activity by endothelial cells in culture; assay type: cell-based; conditions: human endothelial cell system, 6 hours, control = 100%
Protocol: PAI-1 is determined in the supernatant of HUVEC cells according to the method of Chmielewska et al., 1983. Briefly, cells are cultured in semiconfluent way with or without ECM. The culture medium is changed for Hank's balanced salt solution with 2% FCS and the tested substances with or without added plasmin (5 μg/ml) are diluted in this buffer and incubated with the cells for 6 hours. Samples from the cell supernatant are assayed for the PAI-1 activity.
For the PAI-1 assay, the cell supernatant is incubated with a fixed amount of tPA (40 U/ml) and the residual activity of the tPA is determined by a substrate composed of plasminogen (0.1μg/ml), chromogenic substrate (S-2251) and stimulator (Kabi, Sweden). After incubation with the substrate, O.D. is measured at 405 run and the amount of the inhibitor is calculated from calibration curve. PAI-1 antigen may also be determined with commercial kits.

With `N=C(N)NCCC[C@H](NC(=O)[C@H](Cc1ccc(O)cc1)NC(=O)CNC(=O)[C@H](CCCCN)NC(=O)[C@H](CCCNC(=N)N)NC(=O)[C@H](CC(N)=O)NC(=O)[C@H](CCCNC(=N)N)NC(=O)[C@H](Cc1c[nH]cn1)NC(=O)[C@H](CCCNC(=N)N)NC(=O)[C@H](Cc1ccccc1)NC(=O)[C@H](CCCNC(=N)N)NC(=O)[C@H](CCC(N)=O)NC(=O)[C@H](CCCCN)NC(=O)[C@@H](N)CCCCN)C(=O)N[C@@H](CO)C(=O)N[C@@H](CCC(N)=O)C(=O)O` [BP6] (H-KKQRFRHRNRKGYRSQ-OH) the “level of inhibition achieved” value [1] was “approximately 65%”, the PAI-1 activity decrease below control at 10 µM ([2]; 1 × 10^-5 M) was 19.5% and the PAI-1 activity decrease below control at 1 µM ([2]; 1 × 10^-6 M) was 36.5%. The PAI-1 activity decrease below control at 0.1 µM ([2]; 1 × 10^-7 M) was 19%, the PAI-1 activity decrease below control at 0.01 µM ([2]; 1 × 10^-8 M) was 19% and the PAI-1 activity decrease below control at 0.33 µM ([2]; 3.3 × 10^-7 M) was 39%.
For `N=C(N)NCCC[C@H](NC(=O)CNC(=O)[C@H](CCCNC(=N)N)NC(=O)[C@H](CO)NC(=O)[C@H](Cc1c[nH]cn1)NC(=O)CNC(=O)[C@H](CCCNC(=N)N)NC(=O)[C@H](CCC(N)=O)NC(=O)[C@H](CO)NC(=O)[C@H](CCCNC(=N)N)NC(=O)[C@H](Cc1ccc(O)cc1)NC(=O)CNC(=O)[C@@H](N)CCCCN)C(=O)O` [BP5] (H-KGYRSQRGHSRGR-OH), the “level of inhibition achieved” value [1] was “approximately 65%”.
For `C[C@H](NC(=O)[C@H](CCCNC(=N)N)NC(=O)[C@H](CO)NC(=O)[C@@H]1CCCN1C(=O)[C@H](CCCNC(=N)N)NC(=O)[C@H](CCCNC(=N)N)NC(=O)[C@H](CO)NC(=O)[C@H](CC(N)=O)NC(=O)[C@H](CCC(N)=O)NC(=O)[C@H](CC(N)=O)NC(=O)[C@H](CCCNC(=N)N)NC(=O)CNC(=O)[C@H](CCCNC(=N)N)NC(=O)[C@H](CO)NC(=O)[C@H](Cc1c[nH]cn1)NC(=O)CNC(=O)[C@H](CCCNC(=N)N)NC(=O)[C@H](CCC(N)=O)NC(=O)[C@@H](N)CO)C(=O)O` [BP4] (H-SQRGHSRGRNQNSRRPSRA-OH), the “level of inhibition achieved” value [1] was “approximately 65%”, the PAI-1 activity increase over control at 10 µM ([2]; 1 × 10^-5 M, read-out: PAI activity % above control (mean)) was 29% and the PAI-1 activity increase over control at 1 µM ([2]; 1 × 10^-6 M, read-out: PAI activity % above control (mean)) was 47%. The PAI-1 activity increase over control at 0.1 µM ([2]; 1 × 10^-7 M, read-out: PAI activity % above control (mean)) was 0% and the PAI-1 activity increase over control at 0.33 µM ([2]; 3.3 × 10^-7 M, read-out: PAI activity % above control (mean)) was 17%.
For “BP7: same sequence as BP6 (K348-Q363) but the underlined residues in Scheme II have D configuration (KKQRFRHRNRKGYRSQ; also: some residues are D-form, positions not given here (underlining not shown))”, the “binding to immobilized PAI-1 (effect on vitronectin binding)” value ([1]; D-configuration peptides, 1-10 μM, FIG. 8) was “bind to immobilized PAI-1”.
